Assay results: article PMC10545747, “Development of cyclopeptide inhibitors of cGAS targeting protein-DNA interaction and phase separation” (Nature Communications, 2023)
Where “and” joins values, the source holds several entries; their conditions need not be identical. Identical values can stand only once. Square brackets hold non-standard residues; d marks the D form. Peptide text beside a SMILES is read from it.

Tests used:
[1] = system: HSV-1-infected THP1 cells; experiment: qPCR of IFNB1/CXCL10/IL6 mRNA in THP1 cells stimulated by HSV-1 infection; type: cell-based, human; settings: HSV-1, XQ2B
[2] = system: THP1 cells stimulated with poly (I: C) (TLR3 and RIG-I/MDA-5 pathways); experiment: qPCR of IFNB1 mRNA in THP1 cells stimulated by poly (I: C); type: cell-based, human
Text: We next evaluated the inhibitory effect of XQ2 against cGAS in murine fibroblast L929 cells, macrophage RAW264.7 cells and primary bone marrow-derived macrophages (BMDMs) from C57BL/6 mice.
(§1) The indicated cells were stimulated with either ISD (Sangon Biotech), HSV-1 (Provided by Dr. Zhengfan Jiang), HSV60mer (Sangon Biotech), SATE-cddA[70], 2’3’-cGAMP (Invivogen, Cat# tlrl-nacga23-1), ADU-S100 (MedChemExpress, Cat# HY-12885A) or Poly(I:C) (Invivogen, Cat# tlrl-pic) after XQ2 or XQ2B treatment. Total RNA was isolated from indicated cells that incubated with the drugs for indicated time or mice tissues by using NucleoZOL reagent (MACHEREY-NAGEL) according to the manufacturer’s instructions. The quantifications of mRNA levels were carried out by real-time PCR using a PerfectStart® Uni RT&qPCR Kit (TransGen Biotech) on the QuantStudio 5 qPCR machine (Applied Biosystems). Samples were carried out in triplicate and the target CT values were normalized to GAPDH CT values. Primers of qPCR used in this study can be found in Supplementary Table S2.

in vitro = settings: human, THP1 cells, Cell viability (Fig. S7a)
Method: (§2) Cell viability was measured by cell counting kit-8 (TargetMol) according to the manufacturer’s instructions.
(§3) Supplementary Fig. 2. […]
(§4) (e-g) THP1 cells (e), L929 cells (f) and RAW264.7 cells (g) were exposed to the indicated doses of XQ2 for 48h, the cell viability was measured by CCK8 assay. Data are representative of three independent experiments in (a-g). (Data are presented as mean ± SD, n = 3 independent samples in (a-g), **p < 0.01, ***p < 0.001, ****p < 0.0001 using one-way ANOVA with Dunnett’s post hoc test).
(§5) Source data are provided as a Source Data file. […]
(§6) Relative viability(%) XQ2B
(§7) Supplementary Fig. 7. […] (a) THP1 cells were exposed to the indicated doses of XQ2 or XQ2B for 48h. The cell viability was measured by CCK8 assay. […]
(§8) Data are representative of three independent experiments with similar results in (e), or three independent experiments in (a -d, f, g) . (Data are presented as mean ± SD, n = 3 independent samples in (a-d, f, g), ns, not significant, **p < 0.01, ***p < 0.001, ****p < 0.0001 using one-way ANOV A with Dunnett’s post hoc test). Source data are provided as a Source Data file.

THP1 cells = experiment: in vitro; settings: for Cell viability (Fig. S7a): human, THP1 cells
Method: as §2, §3, §4, §5, §6, §7, §8

L929 cells = experiment: ISD-induced autophagy, LC3-II immunoblotting; type: cell-based, mouse
Method: Total cell lysates were prepared in RIPA lysis buffer (Beyotime Biotechnology) supplemented with 1 mM PMSF and 1× protease inhibitor cocktail (Yeasen), and nuclear protein was extracted by nuclear protein extraction kit (Solarbio) in accordance with the manufacturer’s instructions. The samples were separated by SDS-PAGE and transferred to the PVDF membrane (Millipore). The membranes were incubated with the indicated primary antibodies at 4 °C overnight and then incubated with an HRP-conjugated anti-rabbit IgG antibody (Cell Signaling, Cat# 7074, 1:5000) or anti-mouse IgG antibody (Cell Signaling, Cat# 7076, 1:5000) at room temperature for 1 h. The signal was visualized by using the NcmECL Ultra kit (New Cell & Molecular Biotech) and then was exposed by using MiniChemi (SageCreation).
(§9) Supplementary Fig. 3. […] (a) L929 cells were pretreated for
(§10) 4 h with DMSO or the indicated doses of XQ2, followed by stimulation with dsDNA for 4 h, and then cell lysates were
(§11) (b) Jurkat cells were exposed to the indicated doses of XQ2, and then stimulated with
(§12) Data are representative of three independent experiments in (a, b). (Data are presented as mean ± SD, n = 3 independent
(§13) provided as a Source Data file.
(§14) (1 picture or pasted object on this page, not shown here)

Jurkat cells = system: Jurkat cells
Method: as §2, §9, §10, §11, §12, §13, §14

HSV-1 in THP1 cells = experiment: HSV-1(UL5) mRNA by qPCR (virus infection of cells); type: cell-based, herpes simplex virus-1; parameters: key to HSV-1(UL5) mRNA, qPCR, Fig. 5d / HSV-1(UL5) mRNA (Fig. S8e): relative mRNA level, target CT normalized to GAPDH CT
Method: as §1

## CC(C)C[C@@H]1NC(=O)[C@H](CCCNC(=N)N)NC(=O)[C@H](C(C)C)NC(=O)[C@@H]2CCCN2C(=O)[C@@H](Cc2ccccc2)NC(=O)[C@H](CC(C)C)NC(=O)[C@H](CCCNC(=N)N)NC(=O)[C@H]([C@@H](C)O)NC(=O)[C@H](C)NC(=O)[C@@H](Cc2ccccc2)NC1=O [XQ2B] (cyclo([dF]ATRL[dF]PVRL))
[1]
  IFNB1 mRNA level (Fig. S7c): 7.282 and 8.679 and 8.662
[2]; Poly(I:C), XQ2B
  IFNB1 mRNA level (Fig. S7c): 1527.76 and 1720.01 and 1878.29
[2]; THP1, 10 μM
  poly (I: C)-induced IFNB1 expression: no significant effect on signaling induced by STING agonists or TLR3 agonist such as poly (I: C)
In vitro
  viability at 48 h, 0.195312 µM: 100%
  viability at 48 h, 0.390625 µM: 98%
  viability at 48 h, 0.78125 µM: 101%
  viability at 48 h, 1.5625 µM: 108%
  viability at 48 h, 3.125 µM: 97.6%
  viability at 48 h, 6.25 µM: 113%
  viability at 48 h, 12.5 µM: 100%
  viability at 48 h, 25 µM: 104%
  viability at 48 h, 50 µM: 68.2%
  viability at 48 h, 100 µM: 3.61%
  viability at 48 h, 200 µM: 3.63%
  viability at 48 h, 400 µM: 3.62%
THP1 cells
  cytotoxicity: less cytotoxicity
THP1 cells; 48 h
  IC50: 89.5 ± 31.9 µM
THP1 cells; 48 h, 0.195312 µM
  Cell viability (Fig. S7a): 104.965
THP1 cells; 48 h, 0.390625 µM
  Cell viability (Fig. S7a): 103.952
THP1 cells; 48 h, 100 µM
  Cell viability (Fig. S7a): 3.53
THP1 cells; 48 h, 200 µM
  Cell viability (Fig. S7a): 3.549
THP1 cells; 48 h, 400 µM
  Cell viability (Fig. S7a): 3.541
L929 cells
  ISD-induced autophagy, LC3-II formation: markedly reduced ISD-induced autophagy and cell death
Jurkat cells
  ISD-induced cell death: markedly reduced ISD-induced autophagy and cell death
HSV-1 in THP1 cells; 10 μM
  HSV-1 infection of THP1 cells, HSV1(UL5) mRNA: facilitated HSV-1 infection
HSV-1 in THP1 cells; HSV-1(1×104) 24h
  HSV-1(UL5) mRNA (Fig. S8e): 2.313 and 2.598 and 2.002
HSV-1 in THP1 cells; HSV-1(2×104) 24h
  HSV-1(UL5) mRNA (Fig. S8e): 4.745 and 4.808 and 4.905
